Reference: patent publication US5380761A, “Transdermal compositions” (Chinoin Gyogyszer- ES Vegyeszeti Termekek Gyara RT., priority 1991, dated 1995)

System: MAO-A
Assay: MAO-A inhibition in domestic pig brain nucleus free homogenate (14C-5-HT substrate)
Assay type: in vivo
Settings: p. os 10 mg, 96 h
Method: In further experiments we determined in domestic pigs The MAO activity in the brain and the platelet MAO-B activity.
The experiments were carried out on female (big white) domestic pigs, weighing 25-30 kg. The pigs were caged separately during the experiments, and the same food was supplied, which was used formerly.
Blood samples were taken for the determination of MAO-B activity at: 0, 3, 6, 24, 48, 72 and 96 h. At 96 h after blood sampling the pigs were killed and the MAO-B and MAO-A activity was determined in their dissected brain.
The times of blood sampling were at: 0, 3, 6, 24 and 48 h. The transdermal preparations were removed at 24 h. […] The pigs were killed at 48 h and MAO-A and MAO-B activity of the brain was determined.
Blood samples were taken at: 0, 3, 6, 24, 48 and 72 h. The patches were removed at 48 h and the whole procedure described at group 2 was accomplished.
MAO activity was measured radiometrically according to the methods of Wurtman and Axelrod (Biochem. Pharmacol. 12. 1414-19; 1963) with a slight modification (K. Magyar in: Monoamine Oxidases and their Selective Inhibition. Ed.: K. Magyar, Pergamon Press, Akademiai Kiado, Budapest 11-21; 1980).

## C#CCN(C)[C@H](C)Cc1ccccc1 [(-)-Deprenyl]
  inhibition of MAO-activity (%) as compared to the control, brain, 14C-5-HT: 20.14 ± 6.0%
